According to paper PMC9635468, “Biological evaluation, docking studies, and in silico ADME prediction of some pyrimidine and pyridine derivatives as potential EGFR^WT and EGFR^T790M inhibitors” (Journal of Enzyme Inhibition and Medicinal Chemistry, 2022):
Converted amounts (≈) assume the structure as drawn.

Experiments:
[1] = system: NF-kB; parameters: method as in PMID 25108361; conditions: inhibitory potential against NF-kB; cited from earlier work
[2] = system: MCF7; experiment: Cytotoxicity screening, SRB assay, MCF7; type: cell-based, human; conditions: for IC50: Homo sapiens, MCF7, 48 h
Protocol: (§1) In this study, a panel of cell lines was examined for their chemosensitivity. Different concentrations of the synthesised pyridines and pyrimidine derivatives were used in this study (5, 12.5, 25, and 50 µg/mL) for all the examined cell lines. In this study, breast tumour cell line (MCF7), hepatocellular carcinoma cell line (HEPG2), larynx cell line (HEP2), lung cancer cell line (H460), colon cancer cell line (HCT116 and Caco2), hypopharyngeal cell line (FADU), and normal Vero cell line were applied. The full methodology is described in the Supplementary data (SI 1).
(§2) SI 1: Cytotoxicity screening against human cancer cell lines
(§3) In this study, a panel of cell lines was examined for their chemosensitivity. Different concentrations of the synthesized pyridines and pyrimidines derivatives were used in this study (5, 12.5, 25, and 50 µg/ml) for all the examined cell lines. The most sensitive cell line to the treatment regimen was selected and subjected to further investigations to explore the mechanism of this interaction. Human breast tumor cell line (MCF7), human hepatocellular carcinoma cell line (HEPG2), human larynx cell line (HEP2), human lung cancer cell line (H460), human colon cancer cell line (HCT116 and Caco2), human hypopharyngeal cell line (FaDu), and normal cell line Vero were used in this study. It was obtained from the American Type Culture Collection (ATCC, Minnesota, USA). The tumor cell line was maintained at National Cancer Institute (NCI), Cairo, Egypt.
(§4) The antitumor activities of pyridines and pyrimidines derivatives and all tested cell lines were evaluated by sulphorhodamine-B (SRB) assay 1. Briefly, cells were seeded at a density of 3 × 10^3 cells/well in 96-well microtiter plates. They were left to attach for 24 h before incubation with drugs. Next, cells were treated with different concentrations of 5, 12.5, 25, and 50 µg/ml for MCF7, HEPG2, HEP2, HCT116, Caco2, H460, FaDu, and Vero cells. For each concentration, three wells were used and incubation was continued for 48 h. DMSO was used as a control vehicle (1 % v/v). At the end of incubation, cells were fixed with 20 % trichloroacetic acid and stained with 0.4 % SRB dye. The optical density (O.D.) of each well was measured spectrophotometrically at 570 nm using an ELISA microplate reader (TECAN sunrise™, Germany). The mean survival fraction at each drug concentration was calculated as follows: […]
(§5) O.D. of the treated cells/O.D. of the control cells. The IC50 (concentration that produces 50% of cell growth inhibition) value of each drug was calculated using sigmoidal dose-response curve-fitting models (Graph Pad Prizm software, version 5) 1.

[3] = system: CaCo2; experiment: Cytotoxicity screening, SRB assay, CaCo2; type: cell-based, human; conditions: for IC50: Homo sapiens, Caco-2, 48 h
Protocol: as §1, §2, §3, §4, §5

[4] = system: HEP2; experiment: Cytotoxicity screening, SRB assay, HEP2; type: cell-based, human; conditions: for IC50: Homo sapiens, HEp-2, 48 h
Protocol: as §1, §2, §3, §4, §5

[5] = system: H460; experiment: Cytotoxicity screening, SRB assay, H460; type: cell-based, human; conditions: for IC50: Homo sapiens, NCI-H460, 48 h
Protocol: as §1, §2, §3, §4, §5

[6] = system: T47D; experiment: Cytotoxicity screening, SRB assay, T47D; type: cell-based, human; conditions: 48 h; for IC50: Homo sapiens, T47D
[7] = system: HEPG2; experiment: Cytotoxicity screening, SRB assay, HEPG2; type: cell-based, human; conditions: for IC50: Homo sapiens, HepG2, 48 h
Protocol: as §1, §2, §3, §4, §5

[8] = system: VERO; experiment: Cytotoxicity screening, SRB assay, normal Vero cells; type: cell-based; conditions: 48 h, normal cell line; for IC50: Chlorocebus sabaeus, Vero
Protocol: as §1, §2, §3, §4, §5

[9] = system: FADU; experiment: Cytotoxicity screening, SRB assay, FADU; type: cell-based, human; conditions: 48 h; for IC50: Homo sapiens, FaDu
Protocol: as §1, §2, §3, §4, §5

[10] = system: HCT116; experiment: Cytotoxicity screening, SRB assay, HCT116; type: cell-based, human; conditions: for IC50: Homo sapiens, HCT-116, 48 h
Protocol: as §1, §2, §3, §4, §5

[11] = system: PI3Kd; parameters: method as in PMID 29631787; conditions: inhibitory potential against PI3Kd; cited from earlier work

SMILES	IC50 [2] [µg/mL]	IC50 [3] [µg/mL]	IC50 [4] [µg/mL]	IC50 [5] [µg/mL]	IC50 [6] [µg/mL]	IC50 [7] [µg/mL]	IC50 [8] [µg/mL]	IC50 [9] [µg/mL]	IC50 [10] [µg/mL]	other results
Nc1n[nH]c2ncc3c(c12)-c1ccccc1CC3 [Compound V]	–	–	–	–	–	–	–	–	–	IC50 [1]: 6.9 µM
N#Cc1c(-c2cccs2)cc(-c2ccco2)nc1OCC(=O)N/N=C1/C(=O)Nc2ccccc21 [Compound 21]	9.5 (≈ 20.2 µM)	34 (≈ 72.4 µM)	19.8 (≈ 42.2 µM)	23.3 (≈ 49.6 µM)	17 (≈ 36.2 µM)	5 (≈ 10.7 µM)	38.2 (≈ 81.4 µM)	10.9 (≈ 23.2 µM)	–	–
Nc1nn2c(-c3cccs3)cc(-c3ccco3)nc2c1/N=N/c1ccc([N+](=O)[O-])cc1 [Compound 7]	13.7 (≈ 31.8 µM)	21.5 (≈ 49.8 µM)	35.2 (≈ 81.6 µM)	3.7 (≈ 8.58 µM)	44.5 (≈ 103 µM)	12 (≈ 27.8 µM)	12 (≈ 27.8 µM)	8.3 (≈ 19.2 µM)	15 (≈ 34.8 µM)	–
CC1Cc2cnc3[nH]nc(N)c3c2-c2ccccc21 (centres unmarked) [Compound IV]	–	–	–	–	–	–	–	–	–	IC50 [1]: 4.7 µM
N#Cc1c(-c2cccs2)cc(-c2ccco2)nc1NN [Compound 17]	34 (≈ 120 µM)	24 (≈ 85 µM)	24 (≈ 85 µM)	12.7 (≈ 45 µM)	4.9 (≈ 17.4 µM)	4.9 (≈ 17.4 µM)	16.5 (≈ 58.4 µM)	10.5 (≈ 37.2 µM)	19.3 (≈ 68.4 µM)	–
N#Cc1c(-c2cccs2)cc(-c2ccco2)nc1-c1c[nH]c2ccccc12 [Compound 13]	7.8 (≈ 21.2 µM)	–	4.8 (≈ 13.1 µM)	–	21 (≈ 57.2 µM)	8.6 (≈ 23.4 µM)	–	15.9 (≈ 43.3 µM)	44.3 (≈ 121 µM)	–
Clc1nc(-c2ccco2)cc(-c2cccs2)c1-c1nnn[nH]1 [Compound 16]	21 (≈ 63.7 µM)	18.2 (≈ 55.2 µM)	31 (≈ 94 µM)	19.4 (≈ 58.8 µM)	8.9 (≈ 27 µM)	9.7 (≈ 29.4 µM)	4.5 (≈ 13.6 µM)	9 (≈ 27.3 µM)	27 (≈ 81.9 µM)	–
COc1ncc(-c2cc(O[C@@H]3CCN(C(=O)C4CCOCC4)C3)c3cnn(C)c3n2)cc1NS(C)(=O)=O [Compound II]	–	–	–	–	–	–	–	–	–	IC50 [11]: 0.0053 µM
N#Cc1c(-c2cccs2)cc(-c2ccco2)nc1Cl [Compound 15]	14.7 (≈ 51.3 µM)	23.5 (≈ 82 µM)	36.8 (≈ 128 µM)	21 (≈ 73.2 µM)	49.4 (≈ 172 µM)	12 (≈ 41.8 µM)	21.5 (≈ 75 µM)	17.5 (≈ 61 µM)	22 (≈ 76.7 µM)	–
c1coc(-c2cc(-c3cccs3)n3nnnc3n2)c1 [Compound 10]	18.7 (≈ 69.4 µM)	–	22.8 (≈ 84.7 µM)	2.9 (≈ 10.8 µM)	18.2 (≈ 67.6 µM)	7.3 (≈ 27.1 µM)	28.5 (≈ 106 µM)	4.5 (≈ 16.7 µM)	33.3 (≈ 124 µM)	–
N#Cc1c(-c2cccs2)cc(-c2ccco2)nc1OCC(=O)NN [Compound 19]	39.5 (≈ 116 µM)	10.8 (≈ 31.7 µM)	43.5 (≈ 128 µM)	41.5 (≈ 122 µM)	32 (≈ 94 µM)	24.2 (≈ 71.1 µM)	36 (≈ 106 µM)	20.5 (≈ 60.2 µM)	–	–
COc1cccc2c1C(=O)c1c(O)c3c(c(O)c1C2=O)C[C@@](O)(C(=O)CO)C[C@@H]3O[C@H]1C[C@H](N)[C@H](O)[C@H](C)O1 [DOX, reference compound]	–	–	–	–	–	–	–	–	–	MCF7 IC50 ([2]; 48 h): 4.50 µg/mL; CaCo2 IC50 ([3]; 48 h): 6.00 µg/mL; HEP2 IC50 ([4]; 48 h): 5.60 µg/mL; HCT116 IC50 ([10]; 48 h): 5.50 µg/mL; H460 IC50 ([5]; 48 h): 6.50 µg/mL; T47D IC50 [6]: 4.00 µg/mL; HEPG2 IC50 ([7]; 48 h): 4.58 µg/mL; VERO IC50 [8]: 23.00 µg/mL; FADU IC50 [9]: 7.00 µg/mL
CCOC(=O)COc1nc(-c2ccco2)cc(-c2cccs2)c1C#N [Compound 18]	21.5 (≈ 60.7 µM)	23.5 (≈ 66.3 µM)	23 (≈ 64.9 µM)	25 (≈ 70.5 µM)	25.5 (≈ 72 µM)	9 (≈ 25.4 µM)	24.5 (≈ 69.1 µM)	22 (≈ 62.1 µM)	36.7 (≈ 104 µM)	–
C1=C(c2ccco2)n2c(nc3ccccc32)SC1c1cccs1 (centres unmarked) [Compound 11]	15.9 (≈ 47.3 µM)	24.8 (≈ 73.7 µM)	19.5 (≈ 58 µM)	4.3 (≈ 12.8 µM)	19.5 (≈ 58 µM)	18.5 (≈ 55 µM)	24 (≈ 71.3 µM)	18.2 (≈ 54.1 µM)	42 (≈ 125 µM)	–
N#Cc1c(-c2cccs2)cc(-c2ccco2)nc1OCC(=O)N/N=C/c1ccc([N+](=O)[O-])cc1 [Compound 20]	12.2 (≈ 25.8 µM)	41.5 (≈ 87.7 µM)	31 (≈ 65.5 µM)	11.3 (≈ 23.9 µM)	49.5 (≈ 105 µM)	11.5 (≈ 24.3 µM)	10.5 (≈ 22.2 µM)	8.5 (≈ 18 µM)	24.7 (≈ 52.2 µM)	–
COc1ncc(-c2cc(NC(=O)c3coc(CN4CCN(C(C)C)CC4)n3)c3cnn(C)c3n2)cc1NS(C)(=O)=O [Compound I]	–	–	–	–	–	–	–	–	–	IC50 [11]: 0.0084 µM
Cc1cnc2[nH]nc(N)c2c1-c1ccccc1 [Compound VI]	–	–	–	–	–	–	–	–	–	IC50 [1]: 39.8 µM
c1coc(-c2cc(-c3cccs3)n3cnnc3n2)c1 [Compound 9]	17.2 (≈ 64.1 µM)	23.5 (≈ 87.6 µM)	14.7 (≈ 54.8 µM)	43.2 (≈ 161 µM)	11.5 (≈ 42.9 µM)	18.5 (≈ 69 µM)	32.5 (≈ 121 µM)	19.6 (≈ 73.1 µM)	24.3 (≈ 90.6 µM)	–
